# Test results as given in patent US20250049970A1, “DLL3 TARGETING PEPTIDES AND CONSTRUCTS THEREOF” (MARIANA ONCOLOGY INC., priority 2023, published 2025).
# *1 amine or outer side, *2 acyl side, *3 side chain or, on linkers, in order; H or OH if unused. Where a SMILES comes first, the peptide text is derived from it. Bridges are numbered along the chain shown (N, C = ends). [ ]: non-standard residue; d: D form. Trp(5-OH) = N[C@@H](Cc1c[nH]c2ccc(O)cc12)C(=O)O; Trp(7-aza) = N[C@@H](Cc1c[nH]c2ncccc12)C(=O)O; Trp(1-Me) = Cn1cc(C[C@H](N)C(=O)O)c2ccccc21; 1Nal = N[C@@H](Cc1cccc2ccccc12)C(=O)O; 2Nal = N[C@@H](Cc1ccc2ccccc2c1)C(=O)O; CH2 = C([*:1])[*:2]
# Biological target: T1, DLL3 (Homo sapiens, UniProt Q9NYJ7)
# T1 sequence (Q9NYJ7 27-618): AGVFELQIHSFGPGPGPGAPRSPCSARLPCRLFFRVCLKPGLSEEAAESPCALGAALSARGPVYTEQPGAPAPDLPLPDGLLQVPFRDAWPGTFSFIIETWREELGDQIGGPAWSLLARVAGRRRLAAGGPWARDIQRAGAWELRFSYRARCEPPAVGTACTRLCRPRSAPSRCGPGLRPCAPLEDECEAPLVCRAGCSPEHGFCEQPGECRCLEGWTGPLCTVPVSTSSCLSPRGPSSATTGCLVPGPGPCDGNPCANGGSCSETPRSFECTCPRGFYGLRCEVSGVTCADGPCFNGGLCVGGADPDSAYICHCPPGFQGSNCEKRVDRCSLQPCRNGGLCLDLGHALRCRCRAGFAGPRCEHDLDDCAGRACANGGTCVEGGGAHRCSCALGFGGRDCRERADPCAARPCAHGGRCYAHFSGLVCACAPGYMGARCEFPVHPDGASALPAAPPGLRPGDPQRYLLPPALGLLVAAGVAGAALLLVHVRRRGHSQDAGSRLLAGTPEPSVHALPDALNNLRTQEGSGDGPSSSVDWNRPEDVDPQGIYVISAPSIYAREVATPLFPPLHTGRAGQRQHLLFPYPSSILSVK
# Test: SPR KD, biotinylated human DLL3 on streptavidin chip (Table 8)
# Set-up: biotin (biotinylated)
# Settings: biotinylated human DLL3 on streptavidin sensor chip, 25° C., 1:1 binding model; read-out: SPR KD
# From the text: Biotinylated target ligand human DLL3 was immobilized on a streptavidin sensor chip. A reference surface was set up for nonspecific binding and refractive index changes. […] Sensorgram curves were fitted with 1:1 binding model, and affinity and kinetic parameters were obtained using Biacore Insight evaluation 4.0. software.
row,Structure (SMILES),Kd [nM]
1,"CSCC[C@H](NC(C)=O)C(=O)N[C@@H](Cc1c[nH]c2ccccc12)C(=O)N[C@H](C(=O)N[C@@H](C)C(=O)N[C@H]1CSSC[C@@H](C(=O)N[C@@H](Cc2c[nH]c3ccccc23)C(=O)N2CCC[C@H]2C(N)=O)NC(=O)[C@H](CC(=O)O)NC(=O)[C@H](Cc2c[nH]cn2)NC(=O)[C@H](Cc2c[nH]c3ccccc23)NC(=O)[C@H](CC(N)=O)NC(=O)[C@H](CC(N)=O)NC1=O)[C@@H](C)O [compound 14, Ac-M-W-T-(L-Ala)-C(3)-N-N-W-H-D-C(3)-W-P-CONH2] (Ac-MWTACNNWHDCWP-NH2; disulfide 5-11)",10 to 100
2,"CC[C@H](C)[C@H](NC(=O)[C@@H](NC(=O)[C@H](Cc1c[nH]c2ncccc12)NC(C)=O)[C@@H](C)O)C(=O)N[C@H]1CSSC[C@@H](C(=O)N[C@@H](Cc2c[nH]c3ccccc23)C(=O)N2CCC[C@H]2C(N)=O)NC(=O)[C@H](CC(=O)O)NC(=O)[C@H](Cc2cnc[nH]2)NC(=O)[C@H](Cc2c[nH]c3ccccc23)NC(=O)[C@H](CC(N)=O)NC(=O)[C@H](CC(N)=O)NC1=O [compound 24, Ac-(7Aza-W)-T-I-C(3)-N-N-W-H-D-C(3)-W-P-CONH2] (Ac-[Trp(7-aza)]TICNNWHDCWP-NH2; disulfide 4-10)",10 to 100
3,"CC[C@H](C)[C@H](NC(=O)[C@@H](NC(=O)[C@H](Cc1cccc2ccccc12)NC(C)=O)[C@@H](C)O)C(=O)N[C@H]1CSSC[C@@H](C(=O)N[C@@H](Cc2c[nH]c3ccccc23)C(=O)N2CCC[C@H]2C(N)=O)NC(=O)[C@H](CC(=O)O)NC(=O)[C@H](Cc2cnc[nH]2)NC(=O)[C@H](Cc2c[nH]c3ccccc23)NC(=O)[C@H](CC(N)=O)NC(=O)[C@H](CC(N)=O)NC1=O [compound 25, Ac-(1Nal)-T-I-C(3)-N-N-W-H-D-C(3)-W-P-CONH2] (Ac-[1Nal]TICNNWHDCWP-NH2; disulfide 4-10)",10 to 100
4,"CC[C@H](C)[C@H](NC(=O)[C@@H](NC(=O)[C@H](Cc1ccc2ccccc2c1)NC(C)=O)[C@@H](C)O)C(=O)N[C@H]1CSSC[C@@H](C(=O)N[C@@H](Cc2c[nH]c3ccccc23)C(=O)N2CCC[C@H]2C(N)=O)NC(=O)[C@H](CC(=O)O)NC(=O)[C@H](Cc2cnc[nH]2)NC(=O)[C@H](Cc2c[nH]c3ccccc23)NC(=O)[C@H](CC(N)=O)NC(=O)[C@H](CC(N)=O)NC1=O [compound 26, Ac-(2Nal)-T-I-C(3)-N-N-W-H-D-C(3)-W-P-CONH2] (Ac-[2Nal]TICNNWHDCWP-NH2; disulfide 4-10)",10 to 100
5,"CC[C@H](C)[C@H](NC(=O)[C@@H](NC(=O)[C@H](Cc1c[nH]c2ccc(O)cc12)NC(C)=O)[C@@H](C)O)C(=O)N[C@H]1CSSC[C@@H](C(=O)N[C@@H](Cc2c[nH]c3ccccc23)C(=O)N2CCC[C@H]2C(N)=O)NC(=O)[C@H](CC(=O)O)NC(=O)[C@H](Cc2c[nH]cn2)NC(=O)[C@H](Cc2c[nH]c3ccccc23)NC(=O)[C@H](CC(N)=O)NC(=O)[C@H](CC(N)=O)NC1=O [compound 27, Ac-(5OH-W)-T-I-C(3)-N-N-W-H-D-C(3)-W-P-CONH2] (Ac-[Trp(5-OH)]TICNNWHDCWP-NH2; disulfide 4-10)",10 to 100
6,"CC[C@H](C)[C@H](NC(=O)[C@@H](NC(=O)[C@H](Cc1c[nH]c2ccccc12)NC(C)=O)[C@@H](C)O)C(=O)N[C@H]1CSSC[C@@H](C(=O)N[C@@H](Cc2c[nH]c3ccccc23)C(=O)N2CCC[C@H]2C(N)=O)NC(=O)[C@H](CC(=O)O)NC(=O)[C@H](Cc2c[nH]cn2)NC(=O)[C@H](Cc2c[nH]c3ncccc23)NC(=O)[C@H](CC(N)=O)NC(=O)[C@H](CC(N)=O)NC1=O [compound 33, Ac-W-T-I-C(3)-N-N-(7Aza-W)-H-D-C(3)-W-P-CONH2] (Ac-WTICNN[Trp(7-aza)]HDCWP-NH2; disulfide 4-10)",10 to 100

# Now from value to compound:
row,Kd [nM],Structure (SMILES)
1,1 to 10,"CC[C@H](C)[C@H](NC(=O)[C@@H](NC(=O)[C@H](Cc1c[nH]c2ccccc12)NC(=O)[C@H](CCSC)NC(C)=O)[C@@H](C)O)C(=O)N[C@H]1CSSC[C@@H](C(=O)N[C@@H](Cc2c[nH]c3ccccc23)C(=O)N2CCC[C@H]2C(N)=O)NC(=O)[C@H](CC(=O)O)NC(=O)[C@H](Cc2cnc[nH]2)NC(=O)[C@H](Cc2c[nH]c3ccccc23)NC(=O)[C@H](CC(N)=O)NC(=O)[C@H](C)NC1=O [compound 15, Ac-M-W-T-I-C(3)-(L-Ala)-N-W-H-D-C(3)-W-P-CONH2] (Ac-MWTICANWHDCWP-NH2; disulfide 5-11)"
2,10 to 100,"CC[C@H](C)[C@H](NC(=O)[C@@H](NC(=O)[C@H](Cc1c[nH]c2ccccc12)NC(=O)[C@H](CCSC)NC(C)=O)[C@@H](C)O)C(=O)N[C@H]1CSCSC[C@@H](C(=O)N[C@@H](Cc2c[nH]c3ccccc23)C(=O)N2CCC[C@H]2C(N)=O)NC(=O)[C@H](CC(=O)O)NC(=O)[C@H](Cc2cnc[nH]2)NC(=O)[C@H](Cc2c[nH]c3ccccc23)NC(=O)[C@H](CC(N)=O)NC(=O)[C@H](CC(N)=O)NC1=O [compound 32, Ac-M-W-T-I-C(1)-N-N-W-H-D-C(1)-W-P-CONH2] (Ac-MWTICNNWHDCWP-NH2; linker 5-11 via CH2)"
3,10 to 100,"CC[C@H](C)[C@H](NC(=O)[C@@H](NC(=O)[C@H](Cc1c[nH]c2ccccc12)NC(=O)[C@H](CCSC)NC(C)=O)[C@@H](C)O)C(=O)N[C@H]1CSSC[C@@H](C(=O)N[C@@H](Cc2c[nH]c3ccccc23)C(=O)N2CCC[C@H]2C(N)=O)NC(=O)[C@H](CC(=O)O)NC(=O)[C@H](C)NC(=O)[C@H](Cc2c[nH]c3ccccc23)NC(=O)[C@H](CC(N)=O)NC(=O)[C@H](CC(N)=O)NC1=O [compound 36, Ac-M-W-T-I-C(3)-N-N-W-(L-Ala)-D-C(3)-W-P-CONH2] (Ac-MWTICNNWADCWP-NH2; disulfide 5-11)"
4,10 to 100,"CC[C@H](C)[C@H](NC(=O)[C@@H](NC(=O)[C@H](Cc1c[nH]c2ccccc12)NC(=O)[C@H](CCSC)NC(C)=O)[C@@H](C)O)C(=O)N[C@H]1CSSC[C@@H](C(=O)N[C@@H](Cc2c[nH]c3ccccc23)C(=O)N2CCC[C@H]2C(N)=O)NC(=O)[C@H](C)NC(=O)[C@H](Cc2cnc[nH]2)NC(=O)[C@H](Cc2c[nH]c3ccccc23)NC(=O)[C@H](CC(N)=O)NC(=O)[C@H](CC(N)=O)NC1=O [compound 37, Ac-M-W-T-I-C(3)-N-N-W-H-(L-Ala)-C(3)-W-P-CONH2] (Ac-MWTICNNWHACWP-NH2; disulfide 5-11)"
5,10 to 100,"CC[C@H](C)[C@H](NC(=O)[C@@H](NC(=O)[C@H](Cc1c[nH]c2ccccc12)NC(=O)[C@H](CCSC)NC(C)=O)[C@@H](C)O)C(=O)N[C@H]1CSSC[C@@H](C(=O)N[C@@H](Cc2c[nH]c3ccccc23)C(=O)N2CCC[C@H]2C(N)=O)NC(=O)[C@H](CC(=O)O)NC(=O)[C@H](Cc2cnc[nH]2)NC(=O)[C@H](Cc2c[nH]c3ccccc23)NC(=O)[C@H](C)NC(=O)[C@H](CC(N)=O)NC1=O [compound 38, Ac-M-W-T-I-C(3)-N-(L-Ala)-W-H-D-C(3)-W-P-CONH2] (Ac-MWTICNAWHDCWP-NH2; disulfide 5-11)"
6,10 to 100,"CC[C@H](C)[C@H](NC(=O)[C@@H](NC(=O)[C@H](Cc1c[nH]c2ccccc12)NC(=O)[C@H](CCSC)NC(C)=O)[C@@H](C)O)C(=O)N[C@H]1CSSC[C@@H](C(=O)N[C@@H](Cc2c[nH]c3ccccc23)C(=O)N2CCC[C@H]2C(N)=O)NC(=O)[C@H](CC(=O)O)NC(=O)[C@H](Cc2cnc[nH]2)NC(=O)[C@H](Cc2c[nH]c3ccccc23)NC(=O)[C@@H](C)NC(=O)[C@H](CC(N)=O)NC1=O [compound 39, Ac-M-W-T-I-C(3)-N-(D-Ala)-W-H-D-C(3)-W-P-CONH2] (Ac-MWTICN[dA]WHDCWP-NH2; disulfide 5-11)"
7,10 to 100,"CC[C@H](C)[C@H](NC(=O)[C@@H](NC(=O)[C@H](Cc1cn(C)c2ccccc12)NC(=O)[C@H](CCSC)NC(C)=O)[C@@H](C)O)C(=O)N[C@H]1CSSC[C@@H](C(=O)N[C@@H](Cc2c[nH]c3ccccc23)C(=O)N2CCC[C@H]2C(N)=O)NC(=O)[C@H](CC(=O)O)NC(=O)[C@H](Cc2cnc[nH]2)NC(=O)[C@H](Cc2c[nH]c3ccccc23)NC(=O)[C@H](CC(N)=O)NC(=O)[C@H](CC(N)=O)NC1=O [compound 41, Ac-M-(1Me-W)-T-I-C(3)-N-N-W-H-D-C(3)-W-P-CONH2] (Ac-M[Trp(1-Me)]TICNNWHDCWP-NH2; disulfide 5-11)"
8,10 to 100,"CC[C@H](C)[C@H](NC(=O)[C@@H](NC(=O)[C@H](Cc1c[nH]c2ccccc12)NC(=O)[C@H](CCSC)NC(C)=O)[C@@H](C)O)C(=O)N[C@H]1CSSC[C@@H](C(=O)N[C@@H](Cc2c[nH]c3ccccc23)C(=O)N2CCC[C@H]2C(N)=O)NC(=O)[C@H](CC(=O)O)NC(=O)[C@H](Cc2cnc[nH]2)NC(=O)[C@H](Cc2cn(C)c3ccccc23)NC(=O)[C@H](CC(N)=O)NC(=O)[C@H](CC(N)=O)NC1=O [compound 42, Ac-M-W-T-I-C(3)-N-N-(1Me-W)-H-D-C(3)-W-P-CONH2] (Ac-MWTICNN[Trp(1-Me)]HDCWP-NH2; disulfide 5-11)"
9,10 to 100,"CC[C@H](C)[C@H](NC(=O)[C@@H](NC(=O)[C@H](Cc1c[nH]c2ccccc12)NC(=O)[C@H](CCSC)NC(C)=O)[C@@H](C)O)C(=O)N[C@H]1CSSC[C@@H](C(=O)N[C@@H](Cc2cn(C)c3ccccc23)C(=O)N2CCC[C@H]2C(N)=O)NC(=O)[C@H](CC(=O)O)NC(=O)[C@H](Cc2c[nH]cn2)NC(=O)[C@H](Cc2c[nH]c3ccccc23)NC(=O)[C@H](CC(N)=O)NC(=O)[C@H](CC(N)=O)NC1=O [compound 43, Ac-M-W-T-I-C(3)-N-N-W-H-D-C(3)-(1Me-W)-P-CONH2] (Ac-MWTICNNWHDC[Trp(1-Me)]P-NH2; disulfide 5-11)"
